Measurements published in ChEMBL document CHEMBL4837268, “Influence of Linker Attachment Points on the Stability and Neosubstrate Degradation of Cereblon Ligands” (ACS Med Chem Lett, 2021).
Calls of active or inactive are those of the source. The rule behind the calls is not given here.

What was measured:
[1] = Stability of the compound in acetonitrile/buffer mixture at pH 7.4 assessed as parent compound remaining measured after 24 hrs by HPLC analysis; format: physicochemical; conditions: read-out: Stabilty
physchem = conditions: buffer, pH 7.4
Description: Lipophilicity, logD of the compound at pH 7.4 by HPLC analysis

[2] = biological target: T1, Cereblon/Ikaros (Homo sapiens) (UniProt Q96SW2+Q13422); assay: Protac activity at CRBN/IKZF1 in human MM1.S cells assessed as induction of IKZF1 degradation at 1 uM incubated for 6 hrs relative to control; format: cell-based
[3] = Stability in human plasma assessed as half life measured up tp 120 mins by HPLC analysis; format: ADME, cell-free
[4] = biological target: Protein cereblon/Cyclin-dependent kinase 4 (Homo sapiens) (UniProt P11802+Q96SW2); assay: Protac activity at CRBN/CDK4 in human MM1.S cells assessed as protein levels at 1 uM measured after 72 hrs by Western blot analysis relative to control; format: cell-based
[5] = biological target: T1, Cereblon/Ikaros (Homo sapiens); assay: Protac activity at CRBN/IKZF1 in human MM1.S cells assessed as protein levels at 1 uM measured after 72 hrs by Western blot analysis relative to control; format: cell-based
[6] = biological target: Protein cereblon/Zinc finger protein Aiolos (Homo sapiens) (UniProt Q96SW2+Q9UKT9); assay: Protac activity at CRBN/IKZF3 in human MM1.S cells assessed as protein levels at 1 uM measured after 72 hrs by Western blot analysis relative to control; format: cell-based
[7] = Protac activity at CRBN/IKZF3 in human MM1.S cells assessed as induction of IKZF3 degradation at 0.1 to 1 uM measured after 16 hrs by Western blotting analysis; conditions: dose 0.1-1 µM
MM1.S = assay: Cytotoxicity against human MM1.S cells assessed as effect on cell viability at 0.1 to 10 uM incubated for 72 hrs by luminescence based analysis; format: functional; conditions: dose 0.1-10 µM

Sequence of Protein cereblon/Cyclin-dependent kinase 4 (Homo sapiens) (P11802 2-303 limits assumed): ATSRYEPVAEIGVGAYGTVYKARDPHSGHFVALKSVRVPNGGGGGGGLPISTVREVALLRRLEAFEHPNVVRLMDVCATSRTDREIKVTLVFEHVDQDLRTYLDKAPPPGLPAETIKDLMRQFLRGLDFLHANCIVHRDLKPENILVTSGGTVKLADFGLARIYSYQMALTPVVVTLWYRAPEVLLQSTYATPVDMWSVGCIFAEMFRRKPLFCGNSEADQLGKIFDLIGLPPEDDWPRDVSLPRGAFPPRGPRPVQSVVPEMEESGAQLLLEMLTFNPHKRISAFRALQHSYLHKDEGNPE
Sequence of Protein cereblon/Cyclin-dependent kinase 4 (Homo sapiens) (Q96SW2 whole entry partner): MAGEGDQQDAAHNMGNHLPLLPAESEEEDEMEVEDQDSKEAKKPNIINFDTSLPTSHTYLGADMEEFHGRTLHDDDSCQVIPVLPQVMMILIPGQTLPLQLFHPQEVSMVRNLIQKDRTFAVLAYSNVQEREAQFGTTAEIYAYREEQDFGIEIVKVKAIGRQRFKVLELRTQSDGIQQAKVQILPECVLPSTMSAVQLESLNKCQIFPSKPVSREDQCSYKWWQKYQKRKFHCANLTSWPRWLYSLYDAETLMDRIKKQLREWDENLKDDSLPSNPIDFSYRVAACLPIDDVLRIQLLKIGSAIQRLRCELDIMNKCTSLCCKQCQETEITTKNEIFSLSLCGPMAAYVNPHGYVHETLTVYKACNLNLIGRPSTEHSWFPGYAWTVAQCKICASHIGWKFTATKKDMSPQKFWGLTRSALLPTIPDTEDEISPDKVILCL
Sequence of Protein cereblon/Zinc finger protein Aiolos (Homo sapiens) (Q96SW2 whole entry, looked up): as the sequence (Q96SW2 whole entry partner) above
Sequence of Protein cereblon/Zinc finger protein Aiolos (Homo sapiens) (Q9UKT9 whole entry, looked up): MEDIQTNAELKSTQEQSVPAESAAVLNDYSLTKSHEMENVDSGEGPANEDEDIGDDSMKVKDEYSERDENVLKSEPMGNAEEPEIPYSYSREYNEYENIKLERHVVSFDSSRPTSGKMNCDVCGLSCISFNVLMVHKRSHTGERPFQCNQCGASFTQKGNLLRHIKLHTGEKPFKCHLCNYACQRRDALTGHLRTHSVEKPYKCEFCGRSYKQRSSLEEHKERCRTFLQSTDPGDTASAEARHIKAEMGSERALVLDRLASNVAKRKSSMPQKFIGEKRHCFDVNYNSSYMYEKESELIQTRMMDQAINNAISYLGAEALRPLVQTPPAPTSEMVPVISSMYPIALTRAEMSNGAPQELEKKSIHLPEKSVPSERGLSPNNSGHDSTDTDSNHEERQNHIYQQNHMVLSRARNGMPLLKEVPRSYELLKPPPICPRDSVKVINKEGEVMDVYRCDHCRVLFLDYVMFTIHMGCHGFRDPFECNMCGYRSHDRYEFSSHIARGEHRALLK

| Compound | remaining at 24 h [1] | logD (physchem) | Activity [2] | also measured |
| --- | --- | --- | --- | --- |
| O=C1CCC(N2C(=O)c3ccc(C(=O)NCCOCCOCCOCc4ccccc4)cc3C2=O)C(=O)N1 (centres undefined) | 1% | 1.9 |  |  |
| O=C1CCC(N2C(=O)c3ccc(NC(=O)COCCOCCOCc4ccccc4)cc3C2=O)C(=O)N1 (centres undefined) | 11% | 2.3 | 1% |  |
| O=C1CCC(N2Cc3cc(OCCOCCOCCOCc4ccccc4)ccc3C2=O)C(=O)N1 (centres undefined) | 73% | 2.2 | 16% | half-life [3]: > 2 h |
| O=C1CCC(N2Cc3c(NC(=O)COCCOCCOCc4ccccc4)cccc3C2=O)C(=O)N1 (centres undefined) | 79% | 1.6 | 0% | half-life [3]: 1.45 h |
| O=C1CCC(N2Cc3cc(NCCOCCOCCOCc4ccccc4)ccc3C2=O)C(=O)N1 (centres undefined) | 79% | 2.1 | 0% |  |
| O=C1CCC(N2Cc3c(OCCOCCOCCOCc4ccccc4)cccc3C2=O)C(=O)N1 (centres undefined) | 78% |  | 22% |  |
| CC(=O)c1c(C)c2cnc(Nc3ccc(N4CCN(CC(=O)NCCOCCOCCOCC(=O)Nc5cccc6c5CN(C5CCC(=O)NC5=O)C6=O)CC4)cn3)nc2n(C2CCCC2)c1=O (centres undefined) |  |  |  | Activity [4]: 56%; Activity [5]: > 95%; Activity [6]: > 95%; Activity [7]: inactive |
| O=C1CCC(N2Cc3cc(NC(=O)COCCOCCOCc4ccccc4)ccc3C2=O)C(=O)N1 (centres undefined) | 73% | 1.8 | 6% |  |
| O=C(CNc1ccc2c(c1)C(=O)N(C1CCC(=O)NC1=O)C2=O)NCCOCCOCCOCc1ccccc1 (centres undefined) | 56% | 1.8 | 6% |  |
| CC(=O)c1c(C)c2cnc(Nc3ccc(N4CCN(CC(=O)NCCOCCOCCOCC(=O)NCc5cccc6c5C(=O)N(C5CCC(=O)NC5=O)C6=O)CC4)cn3)nc2n(C2CCCC2)c1=O (centres undefined) |  |  |  | Activity (MM1.S): Active; Activity [4]: 68%; Activity [5]: > 95%; Activity [6]: > 95%; Activity [7]: Active |
| O=C1CCC(N2C(=O)c3ccc(C#CCOCCOCCOCc4ccccc4)cc3C2=O)C(=O)N1 (centres undefined) | 1% | 3.3 |  |  |
| O=C(COCCOCCOCc1ccccc1)NCc1ccc2c(c1)C(=O)N(C1CCC(=O)NC1=O)C2=O (centres undefined) | 16% | 1.8 | 0% |  |
| O=C1CCC(N2C(=O)c3ccc(OCCOCCOCCOCc4ccccc4)cc3C2=O)C(=O)N1 (centres undefined) | 30% | 2.9 | 0% | half-life [3]: > 2 h |
| CC(=O)c1c(C)c2cnc(Nc3ccc(N4CCN(CC(=O)NCCOCCOCCOCCNc5cccc6c5C(=O)N(C5CCC(=O)NC5=O)C6=O)CC4)cn3)nc2n(C2CCCC2)c1=O (centres undefined) |  |  |  | Activity (MM1.S): Active; Activity [4]: 26%; Activity [5]: 2%; Activity [6]: 2% |
| O=C1NCCCC1N1C(=O)c2cccc(OCCOCCOCCOCc3ccccc3)c2C1=O (centres undefined) | 99% |  |  |  |
| CC(=O)c1c(C)c2cnc(Nc3ccc(N4CCN(CC(=O)NCCOCCOCCOCCNC(=O)COc5cccc6c5C(=O)N(C5CCC(=O)NC5=O)C6=O)CC4)cn3)nc2n(C2CCCC2)c1=O (centres undefined) |  |  |  | Activity [4]: 66%; Activity [5]: > 95%; Activity [6]: > 95%; Activity [7]: inactive |
| O=C(COc1ccc2c(c1)C(=O)N(C1CCC(=O)NC1=O)C2=O)NCCOCCOCCOCc1ccccc1 (centres undefined) | 15% | 2 | 0% |  |
| O=C(COCCOCCOCc1ccccc1)NCc1cccc2c1C(=O)N(C1CCC(=O)NC1=O)C2=O (centres undefined) | 21% | 2 | 73% | half-life [3]: > 2 h |
| O=C1c2cccc(OCCOCCOCCOCc3ccccc3)c2C(=O)N1C1CCCCC1 | 90% |  |  |  |
| O=C1CCC(N2C(=O)c3ccccc3C2=O)C(=O)N1CCOCCOCCOCc1ccccc1 (centres undefined) | 19% |  |  |  |

Now from value to compound, other results behind:

| remaining at 24 h [1] | logD (physchem) | Activity [2] | Compound | also measured |
| --- | --- | --- | --- | --- |
| 70% | 2.6 | 19% | O=C1CCC(N2C(=O)c3ccc(NCCOCCOCCOCc4ccccc4)cc3C2=O)C(=O)N1 (centres undefined) |  |
| 15% | 2.6 | 14% | O=C1CCC(N2C(=O)c3cccc(NC(=O)COCCOCCOCc4ccccc4)c3C2=O)C(=O)N1 (centres undefined) | half-life [3]: 1.97 h |
| 3% | 1.9 |  | O=C1CCC(N2C(=O)c3cccc(C(=O)NCCOCCOCCOCc4ccccc4)c3C2=O)C(=O)N1 (centres undefined) |  |
| 17% | 2 | 0% | O=C(COc1cccc2c1C(=O)N(C1CCC(=O)NC1=O)C2=O)NCCOCCOCCOCc1ccccc1 (centres undefined) |  |
| 74% | 2.4 | 5% | O=C1CCC(N2Cc3c(NCCOCCOCCOCc4ccccc4)cccc3C2=O)C(=O)N1 (centres undefined) | half-life [3]: > 2 h |
| 46% | 2.6 | 5% | O=C1CCC(N2C(=O)c3cccc(OCCOCCOCCOCc4ccccc4)c3C2=O)C(=O)N1 (centres undefined) |  |
| 80% | 3.1 | 64% | O=C1CCC(N2C(=O)c3cccc(NCCOCCOCCOCc4ccccc4)c3C2=O)C(=O)N1 (centres undefined) | half-life [3]: > 2 h |
| 68% | 2.1 | 29% | O=C(CNc1cccc2c1C(=O)N(C1CCC(=O)NC1=O)C2=O)NCCOCCOCCOCc1ccccc1 (centres undefined) | half-life [3]: > 2 h |
| 6% | 3.2 |  | O=C1CCC(N2C(=O)c3cccc(C#CCOCCOCCOCc4ccccc4)c3C2=O)C(=O)N1 (centres undefined) |  |
